Experimental data published in patent US9107891B2, “Method for alleviating fear memory” (NIPPON SUISAN KAISHA, LTD., priority 2011, dated 2015).

What was measured:
[1] = system: pyramidal cells in the basolateral nucleus of amygdala; test: Patch-clamp in brain slices: depolarization-induced suppression of excitation (DSE); assay type: cell-based; design: unit of the concentration uncertain; details: both groups of mice
Excerpt: Patch-clamp recordings from pyramidal cells in the amygdala were taken in accordance with the methods described in Non-Patent Documents 21 and 22. […] The access resistance was frequently checked during recording and any cells that experienced substantial changes (±20%) in its value during recording were excluded from analysis.
Whole-cell patch recordings were taken from pyramidal cells in the basolateral nucleus of amygdala. A bipolar glass electrode filled with an artificial cerebrospinal fluid was placed in the vicinity of the cell to be recorded and an electric stimulus was applied to the slice. First, the evoked excitatory postsynaptic current (eEPSC) was recorded from neurons in the amygdala. Subsequently, the cell being recorded was depolarized for 10 seconds and, immediately thereafter, eEPSC was recorded again. The ratio of the amplitude of eEPSC after depolarization (Ipost) to that of EPSC before depolarization (Ipre) (Ipost/Ipre) was calculated, and was used to assess the degree of DSE. In addition, to confirm the cannabinoid receptor dependency of DSE, recording was conducted with a brain slice immersed in an artificial cerebrospinal fluid containing rimonabant (5 mM). […] Thus, DSE was recorded in a brain slice immersed in an artificial cerebrospinal fluid containing capsaicin (10 mM) and the resulting changes were also studied.

fear memory in mice = test: Fear conditioning test (freezing time); assay type: in vivo; details: administered 30 minutes before fear conditioning, 5% krill oil diet 6 weeks
Excerpt: The present inventors evaluated the actions of food ingredients on fear memory by the “fear conditioning experiment” (J Neurosci 27 158-166, 2007) which is extensively used as an evaluation system for fear memory in mice.
A cubic experimental box made of acrylic resin having a bottom of 20 cm×20 cm and a height of 33 cm, with a conductive metallic grid being laid across the bottom, was used as a new environment for conditioning; each mouse was put into the experimental box and conditioned by applying electric shocks (0.8 mA, 2 s) from the bottom grid. Feeling an intense pain from each electric shock, a mouse memorizes that when placed in the new environment, it will suffer pain from electric shocks. The mice were then returned to the breeding cage where they had been kept before the conditioning.
On the next day (the second day of the behavioral experiment), each mouse was put again into the experimental box where it was given electric shocks on the previous day; even in the absence of applied electric shocks, it would be scared to cringe, a characteristic freezing behavior from fear. The degree of fear memory was assessed by the degree of the freezing behavior, namely, the freezing time during a 3-minute exposure to the experimental box. […]

COc1cc(CNC(=O)CCCC/C=C/C(C)C)ccc1O [capsaicin]
effect on DSE ([1]; brain slice in artificial cerebrospinal fluid containing capsaicin (10 (unit uncertain))): suppress DSE

C=CCN1CC[C@]23c4c5ccc(O)c4O[C@H]2C(=O)CC[C@@]3(O)[C@H]1C5 [naloxone]
freezing time, naloxone-administered krill oil group vs solvent-administered krill group (fear memory in mice; Test Example 12, FIG. 13): no difference in freezing time

Cc1c(C(=O)NN2CCCCC2)nn(-c2ccc(Cl)cc2Cl)c1-c1ccc(Cl)cc1 [rimonabant]
freezing time, rimonabant-administered krill oil group vs solvent-administered control group (fear memory in mice; Test Example 11, FIG. 12): No significant difference
effect on DSE ([1]; brain slice in artificial cerebrospinal fluid containing rimonabant (5 (unit uncertain))): suppressed DSE almost completely
